Measurements reported in the NIST ThermoML archive (doi:10.1016/j.jct.2013.03.013).

Details: Liquid, Vibrating wire viscometry

Cc1ccccc1 [toluene]
viscosity [mPa·s]
Details	273.13 K	298.15 K	323.16 K	343.16 K	363.16 K
1000 kPa	0.7735	0.5573	0.4222	0.3495	0.2941
5000 kPa	0.7996	0.5744	0.4359	0.3611	0.3047
10000 kPa	0.832	0.5969	0.4531	0.3757	0.3173
20000 kPa	0.8994	0.6394	0.4894	0.4054	0.3436
30000 kPa	0.969	0.6892	0.5242	0.4367	0.3694

F/C=C/C(F)(F)F [trans-1,3,3,3-tetrafluoropropene]
Details	viscosity [mPa·s]
243.16 K, 61 kPa	0.3906
243.16 K, 1000 kPa	0.395
243.16 K, 3000 kPa	0.4028
243.16 K, 5000 kPa	0.4116
243.16 K, 10000 kPa	0.4321
243.16 K, 15000 kPa	0.4532
243.16 K, 20000 kPa	0.4742
243.16 K, 25000 kPa	0.4951
243.16 K, 30000 kPa	0.517
253.16 K, 97 kPa	0.3409
253.16 K, 1000 kPa	0.3462
253.16 K, 3000 kPa	0.3538
253.16 K, 5000 kPa	0.3613
253.16 K, 10000 kPa	0.381
253.16 K, 15000 kPa	0.3999
253.16 K, 20000 kPa	0.4192
253.16 K, 25000 kPa	0.4374
253.16 K, 30000 kPa	0.4554
263.16 K, 148 kPa	0.2942
263.16 K, 1000 kPa	0.3043
263.16 K, 3000 kPa	0.3119
263.16 K, 5000 kPa	0.3189
263.16 K, 10000 kPa	0.3358
263.16 K, 15000 kPa	0.3534
263.16 K, 20000 kPa	0.3707
263.16 K, 25000 kPa	0.3875
263.16 K, 30000 kPa	0.4047
273.15 K, 217 kPa	0.2572
273.15 K, 1000 kPa	0.2626
273.15 K, 3000 kPa	0.2702
273.15 K, 5000 kPa	0.2776
273.15 K, 10000 kPa	0.2949
273.15 K, 15000 kPa	0.3127
273.15 K, 20000 kPa	0.3284
273.15 K, 25000 kPa	0.3451
273.15 K, 30000 kPa	0.3616
283.14 K, 308 kPa	0.2271
283.14 K, 1000 kPa	0.2318
283.14 K, 3000 kPa	0.2383
283.14 K, 5000 kPa	0.2442
283.14 K, 10000 kPa	0.2602
283.14 K, 15000 kPa	0.2755
283.14 K, 20000 kPa	0.2908
283.14 K, 25000 kPa	0.3061
283.14 K, 30000 kPa	0.3203
293.15 K, 428 kPa	0.2016
293.15 K, 1000 kPa	0.2035
293.15 K, 3000 kPa	0.2097
293.15 K, 5000 kPa	0.216
293.15 K, 10000 kPa	0.2315
293.15 K, 15000 kPa	0.2459
293.15 K, 20000 kPa	0.2606
293.15 K, 25000 kPa	0.2741
293.15 K, 30000 kPa	0.2877
303.15 K, 579 kPa	0.179
303.15 K, 1000 kPa	0.1816
303.15 K, 3000 kPa	0.1875
303.15 K, 5000 kPa	0.1933
303.15 K, 10000 kPa	0.2085
303.15 K, 15000 kPa	0.2227
303.15 K, 20000 kPa	0.2364
303.15 K, 25000 kPa	0.2495
303.15 K, 30000 kPa	0.2625
313.14 K, 767 kPa	0.1587
313.14 K, 1000 kPa	0.1601
313.14 K, 3000 kPa	0.1663
313.14 K, 5000 kPa	0.1728
313.14 K, 10000 kPa	0.1873
313.14 K, 15000 kPa	0.2008
313.14 K, 20000 kPa	0.2151
313.14 K, 25000 kPa	0.2283
313.14 K, 30000 kPa	0.2401
323.16 K, 998 kPa	0.1405
323.16 K, 3000 kPa	0.1479
323.16 K, 5000 kPa	0.1539
323.16 K, 10000 kPa	0.1687
323.16 K, 15000 kPa	0.183
323.16 K, 20000 kPa	0.1968
323.16 K, 25000 kPa	0.2093
323.16 K, 30000 kPa	0.221
333.16 K, 1277 kPa	0.1239
333.16 K, 3000 kPa	0.1305
333.16 K, 5000 kPa	0.1373
333.16 K, 10000 kPa	0.1527
333.16 K, 15000 kPa	0.1671
333.16 K, 20000 kPa	0.1796
333.16 K, 25000 kPa	0.1914
333.16 K, 30000 kPa	0.2033
343.16 K, 1611 kPa	0.1085
343.16 K, 3000 kPa	0.115
343.16 K, 5000 kPa	0.1227
343.16 K, 10000 kPa	0.1383
343.16 K, 15000 kPa	0.1527
343.16 K, 20000 kPa	0.1657
343.16 K, 25000 kPa	0.1773
343.16 K, 30000 kPa	0.1888
353.16 K, 2008 kPa	0.0939
353.16 K, 3000 kPa	0.0993
353.16 K, 5000 kPa	0.1072
353.16 K, 10000 kPa	0.1241
353.16 K, 15000 kPa	0.139
353.16 K, 20000 kPa	0.1516
353.16 K, 25000 kPa	0.1638
353.16 K, 30000 kPa	0.1749
363.16 K, 2475 kPa	0.079
363.16 K, 3000 kPa	0.0833
363.16 K, 5000 kPa	0.0932
363.16 K, 10000 kPa	0.1125
363.16 K, 15000 kPa	0.1273
363.16 K, 20000 kPa	0.1401
363.16 K, 25000 kPa	0.1516
363.16 K, 30000 kPa	0.1622
373.17 K, 3026 kPa	0.0632
373.17 K, 5000 kPa	0.0809
373.17 K, 10000 kPa	0.1013
373.17 K, 15000 kPa	0.1155
373.17 K, 20000 kPa	0.1286
373.17 K, 25000 kPa	0.1403
373.17 K, 30000 kPa	0.1514
